The half-life is how long it takes for the measured level to halve. A low value points to rapid decline. Broadly, the MIC is the lowest concentration found to suppress growth.

Nine compounds from ChEMBL document CHEMBL3621188, “Evaluation of (acyloxy)alkyl ester linkers for antibiotic release from siderophore-antibiotic conjugates” (Bioorg Med Chem Lett, 2015) can be followed below.

Each structure is given as a SMILES string. Converted amounts (≈) assume the structure as drawn. A value given as a limit tells only on which side of the number the result lay.

The nature of data set [1]: Half life of compound in HEPES buffer measured at pH 7.5 and 30 DegC by HPLC analysis. It counts as physicochemical.
The subject of the next data set is Escherichia coli. The data set can be described thus: Antimicrobial activity against Escherichia coli K-12 measured after 19 hrs. It counts as functional. To be noted: K-12, 19 h.
The nature of data set [2]: Stability of compound in HEPES buffer assessed as hydrolysis measured at pH 7.5 and 30 DegC after 9 hrs by HPLC analysis. It counts as physicochemical. The conditions noted are these: pH 7.5, 9 h.
Data set [3] is described as follows: Drug degradation in HEPES buffer assessed as decomposition measured at pH 7.5 and 30 DegC after 21 hrs by HPLC analysis. The data set is classed as physicochemical. To be noted: read-out: Drug degradation.

On to `O=C(NCCCCCC(=O)N1CCN(c2cc3c(cc2F)c(=O)c(C(=O)O)cn3C2CC2)CC1)c1cc(O)c(O)c(C(=O)N[C@H]2COC(=O)[C@@H](NC(=O)c3cccc(O)c3O)COC(=O)[C@@H](NC(=O)c3cccc(O)c3O)COC2=O)c1`, for which, in data set [1], the half-life was 8.7 h.

Compound `CC(OC(=O)[C@@H](NC(=O)c1cc(O)c(O)c(C(=O)N[C@H]2COC(=O)[C@@H](NC(=O)c3cccc(O)c3O)COC(=O)[C@@H](NC(=O)c3cccc(O)c3O)COC2=O)c1)C(C)C)OC(=O)N1CCN(c2cc3c(cc2F)c(=O)c(C(=O)O)cn3C2CC2)CC1` (stereo not given in full) gave an MIC with Escherichia coli of 1 µM (≈ 1.21 µg/mL). In data set [1], this compound gave a half-life of 9.9 h. In addition, in data set [2], the Stability entry is given as “Unstable”.

In the case of `CNCC(=O)OCOC(=O)N1CCN(c2cc3c(cc2F)c(=O)c(C(=O)O)cn3C2CC2)CC1`, the half-life in data set [1] is 0.35 h.

On to `CNCC(=O)OC(C)OC(=O)N1CCN(c2cc3c(cc2F)c(=O)c(C(=O)O)cn3C2CC2)CC1` (stereo not given), for which the half-life in data set [1] is 1.6 h.

As for `CN[C@H](C(=O)OC(C)OC(=O)N1CCN(c2cc3c(cc2F)c(=O)c(C(=O)O)cn3C2CC2)CC1)C(C)C` (stereo not given in full), in data set [1], the half-life is 2.4 h.

In the data set with Escherichia coli, `O=C(O)c1cn(C2CC2)c2cc(N3CCNCC3)c(F)cc2c1=O` [CIPROFLOXACIN] yielded an MIC of 0.1 µM (≈ 0.0331 µg/mL). This counts as sub-micromolar.

Consider `CC(OC(=O)[C@H](C)NC(=O)c1ccccc1)OC(=O)N1CCN(c2cc3c(cc2F)c(=O)c(C(=O)O)cn3C2CC2)CC1` (stereo not given in full), for which, in data set [3], the degraded at 21 h came out at 20%. The same compound showed a half-life in data set [1] of more than 60 h.

On to `CC(OC(=O)[C@H](C)NC(=O)c1cc(O)c(O)c(C(=O)N[C@H]2COC(=O)[C@@H](NC(=O)c3cccc(O)c3O)COC(=O)[C@@H](NC(=O)c3cccc(O)c3O)COC2=O)c1)OC(=O)N1CCN(c2cc3c(cc2F)c(=O)c(C(=O)O)cn3C2CC2)CC1` (stereo not given in full), for which, in the data set on Escherichia coli, the MIC is 1 µM (≈ 1.19 µg/mL). This compound also showed a half-life in data set [1] of 8.1 h. Moreover, the Stability result in data set [2] is “Unstable”.

For the compound `CC(OC(=O)[C@@H](NC(=O)c1ccccc1)C(C)C)OC(=O)N1CCN(c2cc3c(cc2F)c(=O)c(C(=O)O)cn3C2CC2)CC1` (stereo not given in full), the degraded at 21 h in data set [3] was 10%. For the same compound, the half-life in data set [1] is more than 130 h.
